From patent US20100286181A1, “PYRROLE DERIVATIVES WITH ANTIBACTERIAL ACTIVITY” (ASTRAZENECA AB, priority 2006, published 2010)

Biological target: GyrB ATPase activity (E. coli GyrA, E. coli GyrB) (Escherichia coli, UniProt P0AES6)
Assay: GyrB ATPase inhibition activity assay (ammonium molybdate/malachite green phosphate detection)
Type: biochemical
Conditions: figure quoted may be an average of two or more results
Procedure: Compounds may be tested for inhibition of GyrB ATPase activity using an ammonium molybdate/malachite green-based phosphate detection assay (Lanzetta, P. A., L. J. Alvarez, P. S. Reinach, and O. A. Candia, 1979, 100: 95-97). Assays can be performed in multiwell plates in 100 μl reactions containing: 50 mM HEPES buffer pH 7.5, 75 mM ammonium acetate, 5.5 mM magnesium chloride, 0.5 mM ethylenediaminetetraacetic acid, 5% glycerol, 1 mM 1,4-Dithio-DL-threitol, 200 nM bovine serum albumin, 5 μg/ml sheared salmon sperm DNA, 2.5 nM E. coli GyrA, 2.5 nM E. coli GyrB, 250 μM ATP, and compound in dimethylsulfoxide. Reactions can be quenched with 150 μl of ammonium molybdate/malachite green detection reagent containing 1.2 mM malachite green hydrochloride, 8.5 mM ammonium molybdate tetrahydrate, and 1 M hydrochloric acid.
Compounds of the Examples could be expected to have IC50 values of <200 μg/ml in one or both assays described herein above. For Example the following results were obtained in a GyrB ATPase inhibition activity assay substantially similar to the above wherein the figure quoted may be an average of two or more results

| SMILES | IC50 [nM] |
| --- | --- |
| COCCNC(=O)c1nc(N2CC[C@@H](NC(=O)c3[nH]c(C)c(Cl)c3Cl)[C@@H](n3cc(COC)nn3)C2)sc1C(=O)O [Example 117] | < 9.77 |
| COCC(COC)NC(=O)c1nc(N2CC[C@@H](NC(=O)c3[nH]c(C)c(Cl)c3Cl)[C@@H](n3cc(C)nn3)C2)sc1C(=O)O [Example 105] | < 9.77 |
| COCC(COC)NC(=O)c1nc(N2CC[C@@H](NC(=O)c3[nH]c(C)c(Cl)c3Cl)[C@@H](n3cc(CO)nn3)C2)sc1C(=O)O [Example 114] | < 9.77 |
| CNC(=O)c1nc(N2CCC(NC(=O)c3[nH]c(C)c(Cl)c3Cl)/C(=N/OC)C2)sc1C(=O)O (centres unmarked) [Example 26, 2-[(3E)-4-{[(3,4-Dichloro-5-methyl-1H-pyrrol-2-yl)carbonyl]amino}-3-(methoxyimino)piperidin-1-yl]-4-[(methylamino)carbonyl]-1,3-thiazole-5-carboxylic acid] | < 9.77 |
| Cc1[nH]c(C(=O)N[C@H]2CCN(c3ncc(C(=O)O)s3)C[C@H]2n2ccnc2)c(Cl)c1Cl (racemic) [Example 42, cis(±)2-[4-{[(3,4-Dichloro-5-methyl-1H-pyrrol-2-yl)carbonyl]amino}-3-(1H-imidazol-1-yl)piperidin-1-yl]-1,3-thiazole-5-carboxylic acid] | < 75.6 |
| CCOC(=O)c1sc(N2CC[C@@H](NC(=O)c3[nH]c(C)c(Cl)c3Cl)[C@@H](n3cc(C#N)nn3)C2)nc1C(=O)NCCOC [Example 92, Ethyl 2-[(3S,4R)-3-(4-cyano-1H-1,2,3-triazol-1-yl)-4-[(3,4-dichloro-5-methyl-1H-pyrrole-2-carbonyl)amino]-1-piperidinyl]-4-(2-methoxyethylcarbamoyl)-1,3-thiazole-5-carboxylate] | < 9.77 |
| CNC(=O)c1nc(N2CCC(NC(=O)c3[nH]c(C)c(Cl)c3Cl)C3(C2)OCCO3)sc1C(=O)O (centres unmarked) [Example 13, 2-(10-{[(3,4-Dichloro-5-methyl-1H-pyrrol-2-yl)carbonyl]amino}-1,4-dioxa-7-azaspiro[4.5]dec-7-yl)-4-[(methylamino)carbonyl]-1,3-thiazole-5-carboxylic acid] | < 69 |
| COCC(COC)NC(=O)c1nc(N2CC[C@@H](NC(=O)c3[nH]c(C)c(Cl)c3Cl)[C@@H](n3cc(Cl)nn3)C2)sc1C(=O)O [Example 109] | < 9.77 |
| Cc1[nH]c(C(=O)N[C@H]2CCN(c3ncc(C(=O)O)s3)C[C@H]2N=[N+]=[N-])c(Cl)c1Cl (racemic) [Example 66, cis(±)-2-(3-Azido-4-{[(3,4-dichloro-5-methyl-1H-pyrrol-2-yl)carbonyl]amino}piperidin-1-yl)-1,3-thiazole-5-carboxylic acid] | < 9.77 |
| COC(=O)c1cnc(N2CC[C@@H](NC(=O)c3[nH]c(C)c(Cl)c3Cl)[C@@H](n3ccnn3)C2)s1 [Example 70, Methyl 2-[(3S,4R)-4-{[(3,4-dichloro-5-methyl-1H-pyrrol-2-yl)carbonyl]amino}-3-(1H-1,2,3-triazol-1-yl)-1-piperidinyl]-1,3-thiazole-5-carboxylate] | 12.4 |
| Cc1[nH]c(C(=O)N[C@H]2CCN(c3ncc(C(=O)O)s3)C[C@H]2N)c(Cl)c1Cl (racemic) [Example 68, cis(±)2-(3-Amino-4-{[(3,4-dichloro-5-methyl-1H-pyrrol-2-yl)carbonyl]amino}piperidin-1-yl)-1,3-thiazole-5-carboxylic acid] | 291 |
| CONC(=O)c1cnc(N2CC[C@@H](NC(=O)c3[nH]c(C)c(Cl)c3Cl)[C@@H](n3ccnn3)C2)s1 [Example 120, 2-[(3S,4R)-4-{[(3,4-Dichloro-5-methyl-1H-pyrrol-2-yl)carbonyl]amino}-3-(1H-1,2,3-triazol-1-yl)piperidin-1-yl]-N-methoxy-1,3-thiazole-5-carboxamide] | 19.6 |
| COCc1cn([C@H]2CN(c3nc(C(=O)NC(COC)COC)c(C(=O)O)s3)CC[C@H]2NC(=O)c2[nH]c(C)c(Cl)c2Cl)nn1 [Example 116] | < 9.77 |
| CO/N=C1\CN(c2nc(-c3ncnn3C)c(C(=O)OC)s2)CCC1NC(=O)c1[nH]c(C)c(Cl)c1Cl (centres unmarked) [Example 34, Methyl 2-[(3E)-4-{[(3,4-dichloro-5-methyl-1H-pyrrol-2-yl)carbonyl]amino}-3-(methoxyimino)piperidin-1-yl]-4-(1-methyl-1H-1,2,4-triazol-5-yl)-1,3-thiazole-5-carboxylate] | 66.8 |
| CCOC(=O)c1sc(N2CCC(NC(=O)c3[nH]c(C)c(Cl)c3Cl)/C(=N/OC)C2)nc1C(=O)NCCOC (centres unmarked) [Example 33, Ethyl 2-[(3E)-4-{[(3,4-dichloro-5-methyl-1H-pyrrol-2-yl)carbonyl]amino}-3-(methoxyimino)piperidin-1-yl]-4-{[(2-methoxyethyl)amino]carbonyl}-1,3-thiazole-5-carboxylate] | 36.9 |
| CC(=O)c1nc(N2CCC(NC(=O)c3[nH]c(C)c(Cl)c3Cl)C3(C2)OCCCO3)sc1C(=O)O (centres unmarked) [Example 19, 4-Acetyl-2-(11-{[(3,4-dichloro-5-methyl-1H-pyrrol-2-yl)carbonyl]amino}-1,5-dioxa-8-azaspiro[5.5]undec-8-yl)-1,3-thiazole-5-carboxylic acid] | < 9.77 |
| CO/N=C1\CN(c2ncc(C=O)s2)CCC1NC(=O)c1[nH]c(C)c(Cl)c1Cl (centres unmarked) [Example 32, 3,4-Dichloro-N-[(3E)-1-(5-formyl-1,3-thiazol-2-yl)-3-(methoxyimino)piperidin-4-yl]-5-methyl-1H-pyrrole-2-carboxamide] | 59.3 |
| COC(=O)c1sc(N2CCC(NC(=O)c3[nH]c(C)c(Cl)c3Cl)C3(C2)OCCO3)nc1C(C)=O (centres unmarked) [Example 2, Methyl 4-acetyl-2-(10-{[(3,4-dichloro-5-methyl-1H-pyrrol-2-yl)carbonyl]amino}-1,4-dioxa-7-azaspiro[4.5]dec-7-yl)-1,3-thiazole-5-carboxylate] | 487 |
| COC1COC2(CN(c3ncc(C(=O)O)s3)CCC2NC(=O)c2[nH]c(C)c(Cl)c2Cl)OC1 [Example 53, 2-((rel-3S,6s,11R)-11-{[(3,4-Dichloro-5-methyl-1H-pyrrol-2-yl)carbonyl]amino}-3-methoxy-1,5-dioxa-8-azaspiro[5.5]undec-8-yl)-1,3-thiazole-5-carboxylic acid] | < 9.77 |
| Cc1cn([C@@H]2CN(c3ncc(C(=O)O)s3)CC[C@@H]2NC(=O)c2[nH]c(C)c(Cl)c2Cl)nn1 (racemic) [Example 122, cis(±)2-[4-{[(3,4-Dichloro-5-methyl-1H-pyrrol-2-yl)carbonyl]amino}-3-(4-methyl-1H-1,2,3-triazol-1-yl)piperidin-1-yl]-1,3-thiazole-5-carboxylic acid] | < 9.77 |
| COCCNC(=O)c1nc(N2CC[C@@H](NC(=O)c3[nH]c(C)c(Cl)c3Cl)[C@@H](n3cc(Cl)nn3)C2)sc1C(=O)O [Example 108, 2-((3S,4R)-3-(4-Chloro-1H-1,2,3-triazol-1-yl)-4-{[(3,4-dichloro-5-methyl-1H-pyrrol-2-yl)carbonyl]amino}piperidin-1-yl)-4-{[(2-methoxyethyl)amino]carbonyl}-1,3-thiazole-5-carboxylic acid] | < 9.77 |
| CO/N=C1\CN(c2nc(-c3ncc[nH]3)c(C(=O)O)s2)CCC1NC(=O)c1[nH]c(C)c(Cl)c1Cl (centres unmarked) [Example 29, 2-[(3E)-4-{[(3,4-Dichloro-5-methyl-1H-pyrrol-2-yl)carbonyl]amino}-3-(methoxyimino)piperidin-1-yl]-4-(1H-imidazol-2-yl)-1,3-thiazole-5-carboxylic acid] | < 9.77 |
| COCCNC(=O)c1nc(N2CC[C@@H](NC(=O)c3[nH]c(C)c(Cl)c3Cl)[C@@H](n3ccnn3)C2)sc1C(=O)O [Example 100] | < 9.77 |
| Cc1[nH]c(C(=O)N[C@@H]2CCN(c3ncc(C(=O)O)s3)C[C@@H]2N=[N+]=[N-])c(Cl)c1Cl [Example 102] | < 9.77 |
| COCCNC(=O)c1nc(N2CC[C@@H](NC(=O)c3[nH]c(C)c(Cl)c3Cl)[C@@H](n3cc(C)nn3)C2)sc1C(=O)O [Example 104] | < 9.77 |
| COC1COC2(CN(c3ncc(C(=O)O)s3)CCC2NC(=O)c2[nH]c(C)c(Cl)c2Cl)OC1 [Example 52, 2-((rel-3R,6r,11R)-11-{[(3,4-Dichloro-5-methyl-1H-pyrrol-2-yl)carbonyl]amino}-3-methoxy-1,5-dioxa-8-azaspiro[5.5]undec-8-yl)-1,3-thiazole-5-carboxylic acid] | < 9.77 |
| CCOC(=O)c1sc(N2CC[C@H](NC(=O)c3[nH]c(C)c(Cl)c3Cl)[C@H](n3cncn3)C2)nc1C(=O)N[C@@H](C)COC (racemic) [Example 48, cis(±)Ethyl 2-[4-{[(3,4-dichloro-5-methyl-1H-pyrrol-2-yl)carbonyl]amino}-3-(1H-1,2,4-triazol-1-yl)piperidin-1-yl]-4-({[(1S)-2-methoxy-1-methylethyl]amino}carbonyl)-1,3-thiazole-5-carboxylate] | 36.5 |
| Cc1[nH]c(C(=O)N[C@H]2CCN(c3ncc(C(=O)O)s3)C[C@H]2n2ccnn2)c(Cl)c1Cl (racemic) [Example 119, cis(±)2-[4-{[(3,4-Dichloro-5-methyl-1H-pyrrol-2-yl)carbonyl]amino}-3-(1H-1,2,3-triazol-1-yl)piperidin-1-yl]-1,3-thiazole-5-carboxylic acid] | 12.3 |
| Cc1[nH]c(C(=O)N[C@@H]2CCN(c3nc4cccc(C(=O)O)c4s3)C[C@@H]2n2ccnn2)c(Cl)c1Cl [Example 124, 2-[(3S,4R)-4-{[(3,4-Dichloro-5-methyl-1H-pyrrol-2-yl)carbonyl]amino}-3-(1H-1,2,3-triazol-1-yl)piperidin-1-yl]-1,3-benzothiazole-7-carboxylic acid] | < 9.77 |
